Assay results as given in patent US20020111274A1, “1-alkyl-3-[1-(substituted phenyl) benzotriazol-6-yl] uracils” (BASF Aktiengesellschaft, priority 2000, published 2002).

Assays:
Set-up in all cases: scale not given here
Conditions in all cases: postemergence spray, rated about two-three weeks after treatment
ABUTH Velvetleaf = test: Postemergence herbicidal evaluation, ABUTH; assay type: in vivo, Abutilon theophrasti, Medic.
Description: (§1) In this evaluation, seedling plants are grown in jiffy flats for about two weeks. The test compounds are dispersed in 80/20 acetone/water mixtures containing 1.0% SUN-IT® II, a methylated seed oil, in sufficient quantities to provide the equivalent of about 0.006 kg to 0.400 kg per hectare of active compound when applied to the plants through a spray nozzle operating at 40 psi for a predetermined time. After spraying, the plants are placed on greenhouse benches and are cared for in accordance with conventional greenhouse procedures. Approximately two - three weeks after treatment, the seedling plants are examined and rated according to the rating system set forth below. Where more than one test is involved for a given compound, the data are averaged.

AMBEL Ragweed, Common = test: Postemergence herbicidal evaluation, AMBEL; assay type: in vivo, Ambrosia artemisifolia, L.
Description: as §1

CASOB Sicklepod = test: Postemergence herbicidal evaluation, CASOB; assay type: in vivo, Cassia obtusifolia, L.
Description: as §1

[1] = tested on: CHEAL Lambsquarters, Common; test: Postemergence herbicidal evaluation, CHEAL; assay type: in vivo, Chenopodium album, L.
Description: as §1

ECHOG Barnyardgrass = test: Postemergence herbicidal evaluation, ECHOG; assay type: in vivo, Echinochloa crus-galli, (L.) Beau
Description: as §1

GALAP Galium = test: Postemergence herbicidal evaluation, GALAP; assay type: in vivo, Galium aparine
Description: as §1

[2] = tested on: IPOHE Morningglory, Ivyleaf; test: Postemergence herbicidal evaluation, IPOHE; assay type: in vivo, Ipomoea hederacea, (L.) Jacq.
Description: as §1

SETVI Foxtail, Green = test: Postemergence herbicidal evaluation, SETVI; assay type: in vivo, Setaria viridis, (L.) Beau
Description: as §1

GLXMAW Soybean, Williams = test: Postemergence herbicidal evaluation, GLXMAW; assay type: in vivo, Glycine max, (L.) Merr. cv Williams
Description: as §1

[3] = tested on: TRZAWR Wheat, Winter, cv Riband; test: Postemergence herbicidal evaluation, TRZAWR; assay type: in vivo, Triticum aestivum
Description: as §1

ORYSAT Rice, Tebonnet = test: Postemergence herbicidal evaluation, ORYSAT; assay type: in vivo, Oryza sativa, (L.)
Description: as §1

ZEAMX Corn, Field = test: Postemergence herbicidal evaluation, ZEAMX; assay type: in vivo, Zea mays, L. (Sammel-Bezeichnung)
Description: as §1

SMILES: C=CCOc1ccc(-n2nnc3cc(F)c(-n4c(=O)cc(C(F)(F)F)n(C)c4=O)cc32)c(C)c1 [Example 43]
- Postemergence herbicidal rating ABUTH (ABUTH Velvetleaf; 0.008 kg/ha): 9.0
- Postemergence herbicidal rating ABUTH (ABUTH Velvetleaf; 0.016 kg/ha): 9.0
- Postemergence herbicidal rating ABUTH (ABUTH Velvetleaf; 0.032 kg/ha): 9.0
- Postemergence herbicidal rating ABUTH (ABUTH Velvetleaf; 0.062 kg/ha): 9.0
- Postemergence herbicidal rating AMBEL (AMBEL Ragweed, Common; 0.008 kg/ha): 1.0
- Postemergence herbicidal rating AMBEL (AMBEL Ragweed, Common; 0.016 kg/ha): 7.0
- Postemergence herbicidal rating AMBEL (AMBEL Ragweed, Common; 0.032 kg/ha): 7.0
- Postemergence herbicidal rating AMBEL (AMBEL Ragweed, Common; 0.062 kg/ha): 9.0
- Postemergence herbicidal rating CASOB (CASOB Sicklepod; 0.008 kg/ha): 0.0
- Postemergence herbicidal rating CASOB (CASOB Sicklepod; 0.016 kg/ha): 0.0
- Postemergence herbicidal rating CASOB (CASOB Sicklepod; 0.032 kg/ha): 0.0
- Postemergence herbicidal rating CASOB (CASOB Sicklepod; 0.062 kg/ha): 3.0
- Postemergence herbicidal rating CHEAL ([1]; 0.008 kg/ha): 0.0
- Postemergence herbicidal rating CHEAL ([1]; 0.016 kg/ha): 3.0
- Postemergence herbicidal rating CHEAL ([1]; 0.032 kg/ha): 3.0
- Postemergence herbicidal rating CHEAL ([1]; 0.062 kg/ha): 4.0
- Postemergence herbicidal rating ECHCG (ECHOG Barnyardgrass; 0.008 kg/ha): 1.0
- Postemergence herbicidal rating ECHCG (ECHOG Barnyardgrass; 0.016 kg/ha): 1.0
- Postemergence herbicidal rating ECHCG (ECHOG Barnyardgrass; 0.032 kg/ha): 1.0
- Postemergence herbicidal rating ECHCG (ECHOG Barnyardgrass; 0.062 kg/ha): 2.0
- Postemergence herbicidal rating GALAP (GALAP Galium; 0.008 kg/ha): 0.0
- Postemergence herbicidal rating GALAP (GALAP Galium; 0.016 kg/ha): 0.0
- Postemergence herbicidal rating GALAP (GALAP Galium; 0.032 kg/ha): 1.0
- Postemergence herbicidal rating GALAP (GALAP Galium; 0.062 kg/ha): 1.0
- Postemergence herbicidal rating IPOHE ([2]; 0.008 kg/ha): 9.0
- Postemergence herbicidal rating IPOHE ([2]; 0.016 kg/ha): 9.0
- Postemergence herbicidal rating IPOHE ([2]; 0.032 kg/ha): 9.0
- Postemergence herbicidal rating IPOHE ([2]; 0.062 kg/ha): 9.0
- Postemergence herbicidal rating SETVI (SETVI Foxtail, Green; 0.008 kg/ha): 0.0
- Postemergence herbicidal rating SETVI (SETVI Foxtail, Green; 0.016 kg/ha): 1.0
- Postemergence herbicidal rating SETVI (SETVI Foxtail, Green; 0.032 kg/ha): 9.0
- Postemergence herbicidal rating SETVI (SETVI Foxtail, Green; 0.062 kg/ha): 9.0
- Postemergence herbicidal rating GLXMAW (GLXMAW Soybean, Williams; 0.008 kg/ha): 5.0
- Postemergence herbicidal rating GLXMAW (GLXMAW Soybean, Williams; 0.016 kg/ha): 5.0
- Postemergence herbicidal rating GLXMAW (GLXMAW Soybean, Williams; 0.032 kg/ha): 5.5
- Postemergence herbicidal rating GLXMAW (GLXMAW Soybean, Williams; 0.062 kg/ha): 5.5
- Postemergence herbicidal rating TRZAWR ([3]; 0.008 kg/ha): 3.0
- Postemergence herbicidal rating TRZAWR ([3]; 0.016 kg/ha): 3.0
- Postemergence herbicidal rating TRZAWR ([3]; 0.032 kg/ha): 3.0
- Postemergence herbicidal rating TRZAWR ([3]; 0.062 kg/ha): 3.0
- Postemergence herbicidal rating ORYSAT (ORYSAT Rice, Tebonnet; 0.008 kg/ha): 2.5
- Postemergence herbicidal rating ORYSAT (ORYSAT Rice, Tebonnet; 0.016 kg/ha): 2.0
- Postemergence herbicidal rating ORYSAT (ORYSAT Rice, Tebonnet; 0.032 kg/ha): 2.0
- Postemergence herbicidal rating ORYSAT (ORYSAT Rice, Tebonnet; 0.062 kg/ha): 3.0
- Postemergence herbicidal rating ZEAMX (ZEAMX Corn, Field; 0.008 kg/ha): 4.0
- Postemergence herbicidal rating ZEAMX (ZEAMX Corn, Field; 0.016 kg/ha): 5.0
- Postemergence herbicidal rating ZEAMX (ZEAMX Corn, Field; 0.032 kg/ha): 5.0
- Postemergence herbicidal rating ZEAMX (ZEAMX Corn, Field; 0.062 kg/ha): 5.0
